Laboratory results taken from US8580829B2 (Boehringer Ingelheim International GmbH, priority 2010, dated 2013).

Experiments:
[1] = biological target: T1, recombinant human FLAP protein (Homo sapiens, UniProt P20292); assay: FLAP binding assay (Scintillation Proximity Assay, displacement of [125I]L-691,831); conditions: recombinant human FLAP membranes, [125I]L-691,831 probe; read-out: FLAP SPA IC50
T1 construct: made in house; host or cells: Sf9 insect cells (100,000 x g membrane fraction)
T1 sequence (P20292 1-161): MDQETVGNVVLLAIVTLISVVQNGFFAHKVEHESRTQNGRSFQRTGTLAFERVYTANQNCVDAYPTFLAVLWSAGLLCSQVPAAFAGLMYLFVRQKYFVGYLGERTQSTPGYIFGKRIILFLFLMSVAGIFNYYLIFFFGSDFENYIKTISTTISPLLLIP
Procedure: Cell pellets produced from sf9 insect cells expressing recombinant human FLAP protein are resuspended in buffer A [15 mM Tris-HCl (pH 7.5), 2 mM MgCl2, 0.3 mM EDTA, 1 mM PMSF]. The cells are lysed with a Dounce homogenizer and the material is centrifuged at 10,000×g for 10 minutes. The supernatant is then collected and centrifuged at 100,000×g for 60 minutes. To prepare membrane protein for an assay, an aliquot of the 100,000×g pellet is resuspended in 1 ml of buffer A, Dounce homogenized, and finally subjected to polytron mixing (30 seconds). Membrane protein (25 μl, 5 μg) is mixed with WGA SPA beads (Amersham) and stirred for 1 h.

[2] = test system: synthesis of LTB4 in human whole blood; assay: human whole blood LTB4 production inhibition assay; assay type: cell-based; conditions: Homo sapiens, heparinized human whole blood, calcimycin 20 μM; read-out: hWB LTB4 IC50
Procedure: Compounds are additionally tested in a human whole blood assay to determine their ability to inhibit the synthesis of LTB4 in a cellular system. Compounds are combined with heparinized human whole blood and incubated for 15 minutes at 37° C. Calcimycin (20 μM final, prepared in phosphate-buffered saline, pH 7.4) is then added and the mixture is incubated for another 30 minutes at 37° C. The samples are centrifuged for 5 min at low speed (1500×g) and the plasma layer is removed. Plasma LTB4 concentrations are then measured using an antibody-based homogenous time-resolved fluorescence method (CisBio, Bedford, Mass.).

Compound	IC50 [1] [nM]	IC50 [2] [nM]
COC(=O)c1cnc(-c2nc(C3(c4ccc(-c5cnc(N)nc5)cc4)CCC3)no2)cn1 [Example 1, 5-(3-{1-[4-(2-amino-pyrimidin-5-yl)-phenyl]-cyclobutyl}-1,2,4-oxadiazol-5-yl)-pyrazine-2-carboxylic acid methyl ester]	8.4	330
CCn1ncc(-c2nc(C3(c4ccc(-c5cnc(N)nc5)cc4)CCC3)no2)c1C [Example 2, 5-(4-{1-[5-(1-ethyl-5-methyl-1H-pyrazol-4-yl)-1,2,4-oxadiazol-3-yl]-cyclobutyl}-phenyl)-pyrimidin-2-ylamine]	2.2	100
Cn1cc(-c2nc(C3(c4ccc(-c5cnc(N)nc5)cc4)CCC3)no2)ccc1=O [Example 3, 5-(3-{1-[4-(2-Amino-pyrimidin-5-yl)-phenyl]-cyclobutyl}-1,2,4-oxadiazol-5-yl)-1-methyl-1H-pyridin-2-one]	5.6	350
Nc1ncc(-c2ccc(C3(c4noc(-c5cccnc5N)n4)CCC3)cc2)cn1 [Example 4, 5-(4-{1-[5-(2-Amino-pyridin-3-yl)-1,2,4-oxadiazol-3-yl]-cyclobutyl}-phenyl)-pyrimidin-2-ylamine]	4.6	720
Cc1cc(-c2nc(C3(c4ccc(-c5cnc(N)nc5)cc4)CCC3)no2)[nH]n1 [Example 5, 5-(4-{1-[5-(5-Methyl-2H-pyrazol-3-yl)-1,2,4-oxadiazol-3-yl]-cyclobutyl}-phenyl)-pyrimdin-2-ylamine]	2.4	> 5000
Cc1n[nH]cc1-c1nc(C2(c3ccc(-c4cnc(N)nc4)cc3)CCC2)no1 [Example 6, 5-(4-{1-[5-(3-Methyl-1H-pyrazol-4-yl)-1,2,4-oxadiazol-3-yl]-cyclobutyl}-phenyl)-pyrimidin-2-ylamine]	1.1	150
Cn1ncc(-c2nc(C3(c4ccc(-c5cnc(N)nc5)cc4)CCC3)no2)c1N [Example 7, 5-(4-{1-[5-(5-Amino-1-methyl-1H-pyrazol-4-yl)-1,2,4-oxadiazol-3-yl]-cyclobutyl}-phenyl)-pyrimidin-2-ylamine]	2.4	50
Nc1ncc(-c2ccc(C3(c4noc(-c5cccnn5)n4)CCC3)cc2)cn1 [Example 8, 5-{4-[1-(5-Pyridazin-3-yl-1,2,4-oxadiazol-3-yl)-cyclobutyl]-phenyl}-pyrimidin-2-ylamine]	8.5	400
Nc1ncc(-c2ccc(C3(c4noc(-c5c[nH]c(=O)[nH]5)n4)CCC3)cc2)cn1 [Example 9, 4-(3-{1-[4-(2-Amino-pyrimidin-5-yl)-phenyl]-cyclobutyl}-1,2,4-oxadiazol-5-yl)-1,3-dihydro-imidazol-2-one]	7	2000
Cc1ncc(-c2nc(C3(c4ccc(-c5cnc(N)nc5)cc4)CCC3)no2)[nH]1 [Example 10, 5-(4-{1-[5-(2-Methyl-3H-imidazol-4-yl)-1,2,4-oxadiazol-3-yl]-cyclobutyl}-phenyl)-pyrimidin-2-ylamine]	2.1	290
Nc1ncc(-c2ccc(C3(c4noc(C(=O)N5CCCC5)n4)CCC3)cc2)cn1 [Example 11, (3-{1-[4-(2-Amino-pyrimidin-5-yl)-phenyl]-cyclobutyl}-1,2,4-oxadiazol-5-yl)-pyrrolidin-1-yl-methanone]	120	1300
Nc1ncc(-c2ccc(C3(c4noc(N5CCCC5)n4)CCC3)cc2)cn1 [Example 12, 5-{4-[1-(5-Pyrrolidin-1-yl-1,2,4-oxadiazol-3-yl)-cyclobutyl]-phenyl}-pyrimidin-2-ylamine]	8.3	470
CCNC(=O)c1nc(C2(c3ccc(-c4cnc(N)nc4)cc3)CCC2)no1 [Example 13, 3-{1-[4-(2-Amino-pyrimidin-5-yl)-phenyl]-cyclobutyl}-1,2,4-oxadiazole-5-carboxylic acid ethylamide]	170	> 5000
CN(C)C(=O)c1nc(C2(c3ccc(-c4cnc(N)nc4)cc3)CCC2)no1 [Example 14, 3-{1-[4-(2-Amino-pyrimidin-5-yl)-phenyl]-cyclobutyl}-1,2,4-oxadiazole-5-carboxylic acid dimethylamide]	57	> 5000
Nc1ncc(-c2ccc(C3(c4noc(-c5c[nH]c(=O)cn5)n4)CCC3)cc2)cn1 [Example 16, 5-(3-{1-[4-(2-Amino-pyrimidin-5-yl)-phenyl]-cyclobutyl}-1,2,4-oxadiazol-5-yl)-1H-pyrazin-2-one]	3.3	> 5000
NC(=O)c1ccc(-c2nc(C3(c4ccc(-c5cnc(N)nc5)cc4)CCC3)no2)cn1 [Example 17, 5-(3-{1-[4-(2-Amino-pyrimidin-5-yl)-phenyl]-cyclobutyl}-1,2,4-oxadiazol-5-yl)-pyridine-2-carboxylic acid amide]	2.1	180
Nc1ncc(-c2ccc(C3(c4noc(-c5cnc(N)nc5)n4)CCC3)cc2)cn1 [Example 18, 5-(4-{1-[5-(2-Amino-pyrimidine-5-yl)-1,2,4-oxadiazole-3-yl]-cyclobutyl}-phenyl)-pyrimidin-2-ylamine]	2.9	300
Nc1ncc(-c2ccc(C3(c4noc(-c5nccnc5N)n4)CCC3)cc2)cn1 [Example 19, 5-(4-{1-[5-(3-Amino-pyrazin-2-yl)-1,2,4-oxadiazol-3-yl]-cyclobutyl}-phenyl)-pyrimidin-2-ylamine]	11	1400
Nc1ccc(-c2nc(C3(c4ccc(-c5cnc(N)nc5)cc4)CCC3)no2)cn1 [Example 20, 5-(4-{1-[5-(6-Amino-pyridin-3-yl)-1,2,4-oxadiazol-3-yl]-cyclobutyl}-phenyl)-pyrimidin-2-ylamine]	1.9	63
Cn1ccc(-c2nc(C3(c4ccc(-c5cnc(N)nc5)cc4)CCC3)no2)cc1=O [Example 21, 4-(3-{1-[4-(2-Amino-pyrimidin-5-yl)-phenyl]-cyclobutyl}-1,2,4-oxadiazol-5-yl)-1-methyl-1H-pyridin-2-one]	3.1	160
Cc1cnc(-c2nc(C3(c4ccc(-c5cnc(N)nc5)cc4)CCC3)no2)cn1 [Example 22, 5-(4-{1-[5-(5-Methyl-pyrazin-2-yl)-1,2,4-oxadiazol-3-yl]-cyclobutyl}-phenyl)-pyrimidin-2-ylamine]	2.6	140
Cn1cnc(-c2nc(C3(c4ccc(-c5cnc(N)nc5)cc4)CCC3)no2)c1 [Example 23]	4.2	73
CCNc1nc(C2(c3ccc(-c4cnc(N)nc4)cc3)CCC2)no1 [Example 24, 5-{4-[1-(5-Ethylamino-1,2,4-oxadiazol-3-yl)-cyclobutyl]-phenyl}-pyrimidin-2-ylamine]	11	460
Nc1ncc(-c2ccc(C3(c4noc(N5CCCC5=O)n4)CCC3)cc2)cn1 [Example 26, 1-(3-{1-[4-(2-Amino-pyrimidin-5-yl)-phenyl]-cyclobutyl}-1,2,4-oxadiazol-5-yl)-pyrrolidin-2-one]	160	1600
CS(=O)(=O)Nc1nc(C2(c3ccc(-c4cnc(N)nc4)cc3)CCC2)no1 [Example 27, N-(3-{1-[4-(2-Amino-pyrimidin-5-yl)-phenyl]-cyclobutyl}-1,2,4-oxadiazol-5-yl)-methanesulfonamide]	340	> 5000
CNC(=O)c1ccc(-c2nc(C3(c4ccc(-c5cnc(N)nc5)cc4)CCC3)no2)cn1 [Example 28, 5-(3-{1-[4-(2-Amino-pyrimidin-5-yl)-phenyl]-cyclobutyl}-1,2,4-oxadiazol-5-yl)-pyridine-2-carboxylic acid methylamide]	4.3	320
CN(C)C(=O)c1ccc(-c2nc(C3(c4ccc(-c5cnc(N)nc5)cc4)CCC3)no2)cn1 [Example 29, 5-(3-{1-[4-(2-Amino-pyrimidin-5-yl)-phenyl]-cyclobutyl}-1,2,4-oxadiazol-5-yl)-pyridine-2-carboxylic acid dimethylamide]	6.9	190
Nc1ncc(-c2ccc(C3(c4noc(-c5ccc(C(=O)N6CCOCC6)nc5)n4)CCC3)cc2)cn1 [Example 30, [5-(3-{1-[4-(2-Amino-pyrimidin-5-yl)-phenyl]-cyclobutyl}-1,2,4-oxadiazol-5-yl)-pyridin-2-yl]-morpholin-4-yl-methanone]	6.5	230
Cn1cc(-c2nc(C3(c4ccc(-c5cnc(N)nc5)cc4)CCC3)no2)ncc1=O [Example 31, 5-(3-{1-[4-(2-Amino-pyrimidin-5-yl)-phenyl]-cyclobutyl}-1,2,4-oxadiazol-5-yl)-1-methyl-1Hpyrazin-2-one]	3	1300
Cn1cccc(-c2nc(C3(c4ccc(-c5cnc(N)nc5)cc4)CCC3)no2)c1=O [Example 32, 3-(3-{1-[4-(2-Amino-pyrimidin-5-yl)-phenyl]-cyclobutyl}-1,2,4-oxadiazol-5-yl)-1-methyl-1Hpyridin-2-one]	4.6	77
